The data set deals with CCRIS mutagenicity, Ames/micronucleus/aberration tests. Kind of data set: CCRIS mutagenicity studies.
Setting [1] is: Test System: AMES SALMONELLA TYPHIMURIUM, Strain/Indicator: TA98, Metabolic Activation: NONE, Method: PREINCUBATION
The mark [2] stands for this setting: Test System: AMES SALMONELLA TYPHIMURIUM, Strain/Indicator: TA100, Metabolic Activation: NONE, Method: PREINCUBATION

The source made the active and inactive calls. No rule for the calls is given here.

In the case of `Nc1ncnc2c1ncn2-c1cccc([N+](=O)[O-])c1`, the mutagenic call (Test System: AMES SALMONELLA TYPHIMURIUM, Strain/Indicator: TA98(1,8-DNP), Metabolic Activation: NONE, Method: PREINCUBATION) was “active; positive”; the mutagenic call (Test System: AMES SALMONELLA TYPHIMURIUM, Strain/Indicator: TA98(1,8-DNP), Metabolic Activation: RAT, LIVER, S-9, PCB, Method: PREINCUBATION) was “active; positive”; the mutagenic call (Test System: AMES SALMONELLA TYPHIMURIUM, Strain/Indicator: TA98(NR), Metabolic Activation: NONE, Method: PREINCUBATION) is “inactive; negative”; the mutagenic call (Test System: AMES SALMONELLA TYPHIMURIUM, Strain/Indicator: TA98(NR), Metabolic Activation: RAT, LIVER, S-9, PCB, Method: PREINCUBATION) is “inactive; negative”; the mutagenic call under setting [1] was “active; positive”; the mutagenic call (Test System: AMES SALMONELLA TYPHIMURIUM, Strain/Indicator: TA98, Metabolic Activation: RAT, LIVER, S-9, PCB, Method: PREINCUBATION) is “active; positive”. Further, the mutagenic call (Test System: AMES SALMONELLA TYPHIMURIUM, Strain/Indicator: TA100(1,8-DNP), Metabolic Activation: NONE, Method: PREINCUBATION) is “active; positive”; the mutagenic call (Test System: AMES SALMONELLA TYPHIMURIUM, Strain/Indicator: TA100(1,8-DNP), Metabolic Activation: RAT, LIVER, S-9, PCB, Method: PREINCUBATION) is “active; positive”; the mutagenic call (Test System: AMES SALMONELLA TYPHIMURIUM, Strain/Indicator: TA100(NR), Metabolic Activation: NONE, Method: PREINCUBATION) is “inactive; negative”; the mutagenic call (Test System: AMES SALMONELLA TYPHIMURIUM, Strain/Indicator: TA100(NR), Metabolic Activation: RAT, LIVER, S-9, PCB, Method: PREINCUBATION) was “inactive; negative”; the mutagenic call under setting [2] was “active; positive”; the mutagenic call (Test System: AMES SALMONELLA TYPHIMURIUM, Strain/Indicator: TA100, Metabolic Activation: RAT, LIVER, S-9, PCB, Method: PREINCUBATION) is “active; positive”. Also, the mutagenic call was “active; positive” (Test System: AMES SALMONELLA TYPHIMURIUM, Strain/Indicator: YG1020, Metabolic Activation: NONE, Method: PREINCUBATION); “active; positive” (Test System: AMES SALMONELLA TYPHIMURIUM, Strain/Indicator: YG1020, Metabolic Activation: RAT, LIVER, S-9, PCB, Method: PREINCUBATION); “active; positive” (Test System: AMES SALMONELLA TYPHIMURIUM, Strain/Indicator: YG1021, Metabolic Activation: NONE, Method: PREINCUBATION); “active; positive” (Test System: AMES SALMONELLA TYPHIMURIUM, Strain/Indicator: YG1021, Metabolic Activation: RAT, LIVER, S-9, PCB, Method: PREINCUBATION); “active; positive” (Test System: AMES SALMONELLA TYPHIMURIUM, Strain/Indicator: YG1024, Metabolic Activation: NONE, Method: PREINCUBATION); “active; positive” (Test System: AMES SALMONELLA TYPHIMURIUM, Strain/Indicator: YG1024, Metabolic Activation: RAT, LIVER, S-9, PCB, Method: PREINCUBATION). The mutagenic call is, setting by setting: (Test System: AMES SALMONELLA TYPHIMURIUM, Strain/Indicator: YG1025, Metabolic Activation: NONE, Method: PREINCUBATION) “active; positive”; (Test System: AMES SALMONELLA TYPHIMURIUM, Strain/Indicator: YG1025, Metabolic Activation: RAT, LIVER, S-9, PCB, Method: PREINCUBATION) “active; positive”; (Test System: AMES SALMONELLA TYPHIMURIUM, Strain/Indicator: YG1026, Metabolic Activation: NONE, Method: PREINCUBATION) “active; positive”; (Test System: AMES SALMONELLA TYPHIMURIUM, Strain/Indicator: YG1026, Metabolic Activation: RAT, LIVER, S-9, PCB, Method: PREINCUBATION) “active; positive”; (Test System: AMES SALMONELLA TYPHIMURIUM, Strain/Indicator: YG1029, Metabolic Activation: NONE, Method: PREINCUBATION) “active; positive”; (Test System: AMES SALMONELLA TYPHIMURIUM, Strain/Indicator: YG1029, Metabolic Activation: RAT, LIVER, S-9, PCB, Method: PREINCUBATION) “active; positive”.

Turning to `c1ccc2cc3c4c(ccc3cc2c1)CCC1OC41` (stereo not drawn), the mutagenic call (Test System: CHINESE HAMSTER V-79, Strain/Indicator: V-79/8-AZAGUANINE, Metabolic Activation: NONE, Method: STANDARD PLATE) was “active; positive”.

For the compound `COc1cccc2c1C(=N)c1c(O)c3c(c(O)c1C2=O)C[C@@](O)(C(C)=O)C[C@@H]3O[C@H]1C[C@H](N)[C@H](O)[C@H](C)O1`, the mutagenic call (Test System: CHINESE HAMSTER V-79, Strain/Indicator: V-79 (HGPRT)/6-THIOGUANINE, Metabolic Activation: NONE) was “active; positive”.

In the case of `c1ccc2[nH]cnc2c1`, the mutagenic call was “inactive; negative” (Test System: AMES SALMONELLA TYPHIMURIUM, Strain/Indicator: TA97, Metabolic Activation: HAMSTER, LIVER, S-9, AROCLOR 1254 (10 OR 30%), Method: PREINCUBATION); “inactive; negative” (Test System: AMES SALMONELLA TYPHIMURIUM, Strain/Indicator: TA97, Metabolic Activation: NONE, Method: PREINCUBATION); “inactive; negative” (Test System: AMES SALMONELLA TYPHIMURIUM, Strain/Indicator: TA97, Metabolic Activation: RAT, LIVER, S-9, AROCLOR 1254 (10 OR 30%), Method: PREINCUBATION); “inactive; negative” (Test System: AMES SALMONELLA TYPHIMURIUM, Strain/Indicator: TA98, Metabolic Activation: HAMSTER, LIVER, S-9, AROCLOR 1254 (10 OR 30%), Method: PREINCUBATION); “inactive; negative” under setting [1]; “inactive; negative” (Test System: AMES SALMONELLA TYPHIMURIUM, Strain/Indicator: TA98, Metabolic Activation: RAT, LIVER, S-9, AROCLOR 1254 (10 OR 30%), Method: PREINCUBATION). Moreover, the mutagenic call runs as follows: (Test System: AMES SALMONELLA TYPHIMURIUM, Strain/Indicator: TA100, Metabolic Activation: HAMSTER, LIVER, S-9, AROCLOR 1254 (10 OR 30%), Method: PREINCUBATION) “inactive; negative”; under setting [2], “inactive; negative”; (Test System: AMES SALMONELLA TYPHIMURIUM, Strain/Indicator: TA100, Metabolic Activation: RAT, LIVER, S-9, AROCLOR 1254 (10 OR 30%), Method: PREINCUBATION) “inactive; negative”; (Test System: AMES SALMONELLA TYPHIMURIUM, Strain/Indicator: TA1535, Metabolic Activation: HAMSTER, LIVER, S-9, AROCLOR 1254 (10 OR 30%), Method: PREINCUBATION) “inactive; negative”; (Test System: AMES SALMONELLA TYPHIMURIUM, Strain/Indicator: TA1535, Metabolic Activation: NONE, Method: PREINCUBATION) “inactive; negative”; (Test System: AMES SALMONELLA TYPHIMURIUM, Strain/Indicator: TA1535, Metabolic Activation: RAT, LIVER, S-9, AROCLOR 1254 (10 OR 30%), Method: PREINCUBATION) “inactive; negative”. Also, the mutagenic call is “inactive; negative” (Test System: AMES SALMONELLA TYPHIMURIUM, Strain/Indicator: TA1537, Metabolic Activation: HAMSTER, LIVER, S-9, AROCLOR 1254 (10 OR 30%), Method: PREINCUBATION); “inactive; negative” (Test System: AMES SALMONELLA TYPHIMURIUM, Strain/Indicator: TA1537, Metabolic Activation: NONE, Method: PREINCUBATION); “inactive; negative” (Test System: AMES SALMONELLA TYPHIMURIUM, Strain/Indicator: TA1537, Metabolic Activation: RAT, LIVER, S-9, AROCLOR 1254 (10 OR 30%), Method: PREINCUBATION).

Regarding `Cc1ccc2c(c1)-c1ccccc1C2C` (stereo not drawn), the mutagenic call (Test System: AMES SALMONELLA TYPHIMURIUM, Strain/Indicator: TA98, Metabolic Activation: RAT, LIVER, S-9, AROCLOR 1254, Method: STANDARD PLATE) is “active; positive” and the mutagenic call (Test System: AMES SALMONELLA TYPHIMURIUM, Strain/Indicator: TA100, Metabolic Activation: RAT, LIVER, S-9, AROCLOR 1254, Method: STANDARD PLATE) is “active; positive”.

The values are drawn from PubChem BioAssay AID1259407 (Chemical Carcinogenesis Research Information System (CCRIS), 2018).
